From ChEMBL document CHEMBL1201862, “PubChem BioAssay data set” (2004) come the findings set out here.

Holding throughout (assay type): functional
The target of experiment [1] is Mitogen-activated protein kinase 9 (Homo sapiens, UniProt P45984).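 Also: value from a kinome panel profiling assay, MAPK9 panel entry.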
Experiment [2] has as its target Mitogen-activated protein kinase kinase kinase kinase 2 (Homo sapiens, UniProt Q12851).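 Also: measured as one member of a kinome-wide kinase panel, with MAP4K2 as the panel entry.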
Experiment [3] addresses Dual specificity protein kinase CLK2 (Homo sapiens, UniProt P49760).
In experiment [4] the target is Serine/threonine-protein kinase pim-1 (Homo sapiens, UniProt P11309).
Sequence of Serine/threonine-protein kinase pim-1 (P11309 whole entry): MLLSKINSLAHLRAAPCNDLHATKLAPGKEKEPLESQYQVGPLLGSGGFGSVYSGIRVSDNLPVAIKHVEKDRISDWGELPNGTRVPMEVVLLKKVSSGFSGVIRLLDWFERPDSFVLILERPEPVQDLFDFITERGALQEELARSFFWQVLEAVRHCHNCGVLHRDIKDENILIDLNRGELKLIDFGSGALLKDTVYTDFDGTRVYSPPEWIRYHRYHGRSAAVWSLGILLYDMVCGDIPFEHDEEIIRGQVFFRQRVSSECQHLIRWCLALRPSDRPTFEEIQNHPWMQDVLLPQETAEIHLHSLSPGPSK
Experiment [5] deals with Serine/threonine-protein kinase D3 (Homo sapiens, UniProt O94806).
For experiment [6], the target named is Vascular endothelial growth factor receptor 2 (Homo sapiens, UniProt P35968).
The target in experiment [7] is ALK tyrosine kinase receptor (Homo sapiens, UniProt Q9UM73).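 Also: ALK tested as one member of a kinase panel screen.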
The target of experiment [8] is Serine/threonine-protein kinase TAO1 (Homo sapiens, UniProt Q7L7X3).
In experiment [9] the target is Glycogen synthase kinase-3 alpha (Homo sapiens, UniProt P49840).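 Also: GSK3A result taken from a broad kinome-wide kinase panel.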
Sequence of Glycogen synthase kinase-3 alpha (P49840 whole entry): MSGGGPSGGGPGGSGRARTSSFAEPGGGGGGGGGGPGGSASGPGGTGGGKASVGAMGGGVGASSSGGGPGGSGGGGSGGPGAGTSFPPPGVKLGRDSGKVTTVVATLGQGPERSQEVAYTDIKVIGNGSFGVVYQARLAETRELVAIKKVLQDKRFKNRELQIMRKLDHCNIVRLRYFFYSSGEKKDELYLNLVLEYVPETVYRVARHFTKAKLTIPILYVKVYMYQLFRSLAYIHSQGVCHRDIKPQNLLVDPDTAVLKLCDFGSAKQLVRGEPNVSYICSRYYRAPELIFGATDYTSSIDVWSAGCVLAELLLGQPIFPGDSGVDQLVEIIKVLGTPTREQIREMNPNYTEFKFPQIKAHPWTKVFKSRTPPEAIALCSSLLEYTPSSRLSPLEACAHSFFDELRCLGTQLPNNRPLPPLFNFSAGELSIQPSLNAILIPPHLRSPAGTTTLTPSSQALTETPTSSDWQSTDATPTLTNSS
In experiment [10] the target is Cyclin-dependent kinase 5 (Homo sapiens, UniProt Q00535).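 Also: CDK5 measured as one member of a kinase profiling panel.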
Experiment [11] concerns the target Glycogen synthase kinase-3 beta (Homo sapiens, UniProt P49841).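 Also: value comes from a broad kinome profiling panel, with GSK3B as the panel member.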
Experiment [12] concerns the target High affinity nerve growth factor receptor (Homo sapiens, UniProt P04629).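 Also: NTRK1 tested as one member of a kinome-wide profiling panel.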
Experiment [13] addresses Leucine-rich repeat serine/threonine-protein kinase 2 (Homo sapiens, UniProt Q5S007).
Experiment [14] concerns the target Inhibitor of nuclear factor kappa-B kinase subunit epsilon (Homo sapiens, UniProt Q14164). The experiment is described as follows: Navigating the Kinome. Panel member name: IKBKE.
The target in experiment [15] is Serine/threonine-protein kinase TBK1 (Homo sapiens, UniProt Q9UHD2). The experiment is described as follows: Navigating the Kinome. Panel member name: TBK1.
Experiment [16] addresses Hepatocyte growth factor receptor (Homo sapiens, UniProt P08581).
The target in experiment [17] is Death-associated protein kinase 3 (Homo sapiens, UniProt O43293).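 Also: measured as one member of a kinome-wide profiling panel.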
For experiment [18], the target named is G protein-coupled receptor kinase 5 (Homo sapiens, UniProt P34947). Nature of the experiment: Navigating the Kinome. Panel member name: GPRK5.
Sequence of G protein-coupled receptor kinase 5 (P34947 whole entry): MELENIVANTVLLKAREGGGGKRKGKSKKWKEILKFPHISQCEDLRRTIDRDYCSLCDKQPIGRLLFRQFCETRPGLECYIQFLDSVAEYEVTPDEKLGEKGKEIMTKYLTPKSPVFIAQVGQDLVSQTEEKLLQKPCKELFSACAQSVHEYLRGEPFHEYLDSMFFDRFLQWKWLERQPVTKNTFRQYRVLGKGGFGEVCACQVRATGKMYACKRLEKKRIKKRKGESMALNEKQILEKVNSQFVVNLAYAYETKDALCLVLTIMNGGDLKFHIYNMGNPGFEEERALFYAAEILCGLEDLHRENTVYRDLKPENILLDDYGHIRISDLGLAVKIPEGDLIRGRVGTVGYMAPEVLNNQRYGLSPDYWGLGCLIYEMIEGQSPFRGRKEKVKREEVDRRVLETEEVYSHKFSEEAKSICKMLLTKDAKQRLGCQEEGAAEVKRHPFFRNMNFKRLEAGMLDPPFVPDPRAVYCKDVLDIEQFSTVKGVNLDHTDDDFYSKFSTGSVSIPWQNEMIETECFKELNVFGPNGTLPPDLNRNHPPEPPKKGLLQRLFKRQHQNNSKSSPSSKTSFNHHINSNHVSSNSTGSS
The target in experiment [19] is Dual specificity protein kinase CLK4 (Homo sapiens, UniProt Q9HAZ1).
Experiment [20] deals with Dual specificity tyrosine-phosphorylation-regulated kinase 1B (Homo sapiens, UniProt Q9Y463). Nature of the experiment: Navigating the Kinome. Panel member name: DYRK1B.
In experiment [21] the target is Macrophage colony-stimulating factor 1 receptor (Homo sapiens, UniProt P07333).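 Also: value comes from the Navigating the Kinome screening panel, CSF1R member.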
Experiment [22] addresses Cyclin-dependent kinase 7 (Homo sapiens, UniProt P50613).
The target in experiment [23] is Cyclin-dependent kinase 8 (Homo sapiens, UniProt P49336). Nature of the experiment: Navigating the Kinome. Panel member name: CDK8.
A further experiment concerns the target LIM domain kinase 1 (Homo sapiens, UniProt P53667). The experiment is described as follows: Navigating the Kinome. Panel member name: LIMK1.
Experiment [24] deals with Mitogen-activated protein kinase 8 (Homo sapiens, UniProt P45983).
For experiment [25], the target named is Tyrosine-protein kinase JAK3 (Homo sapiens, UniProt P52333).
The target of experiment [26] is Tyrosine-protein kinase ABL1 (Homo sapiens, UniProt P00519).
In experiment [27] the target is Tyrosine-protein kinase BTK (Homo sapiens, UniProt Q06187).
Another experiment concerns the target Activin receptor type-1 (Homo sapiens, UniProt Q04771). Nature of the experiment: Navigating the Kinome. Panel member name: ACVR1.
For experiment [28], the target named is Insulin-like growth factor 1 receptor (Homo sapiens, UniProt P08069). The experiment is described as follows: Navigating the Kinome. Panel member name: IGF1R.
The target of experiment [29] is cAMP-dependent protein kinase catalytic subunit PRKX (Homo sapiens, UniProt P51817).
The target of experiment [30] is Receptor-type tyrosine-protein kinase FLT3 (Homo sapiens, UniProt P36888).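 Also: FLT3 was tested as one member of a kinome-wide kinase panel.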
Experiment [31] concerns the target Mitogen-activated protein kinase 14 (Homo sapiens, UniProt Q16539).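 Also: part of a kinome-wide panel, MAPK14 entry.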
The target in experiment [32] is BDNF/NT-3 growth factors receptor (Homo sapiens, UniProt Q16620).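 Also: NTRK2 measured as one member of a broad kinome-wide kinase profiling panel.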
Experiment [33] concerns the target Tyrosine-protein kinase Fyn (Homo sapiens, UniProt P06241).
The target in experiment [34] is Tyrosine-protein kinase receptor TYRO3 (Homo sapiens, UniProt Q06418).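 Also: TYRO3 value obtained as one member of a kinome-wide profiling panel.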
Experiment [35] addresses Leukocyte tyrosine kinase receptor (Homo sapiens, UniProt P29376). The experiment is described as follows: Navigating the Kinome. Panel member name: LTK.
Experiment [36] has as its target Rho-associated protein kinase 1 (Homo sapiens, UniProt Q13464).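 Also: measured within a broad kinome-wide panel profiling many kinases.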
The target in experiment [37] is Proto-oncogene tyrosine-protein kinase receptor Ret (Homo sapiens, UniProt P07949).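 Also: measured within a kinome-wide profiling panel, RET as the panel member.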
Experiment [38] deals with Protein kinase C theta type (Homo sapiens, UniProt Q04759). Nature of the experiment: Navigating the Kinome. Panel member name: PRKCQ.
Sequence of Protein kinase C theta type (Q04759 whole entry): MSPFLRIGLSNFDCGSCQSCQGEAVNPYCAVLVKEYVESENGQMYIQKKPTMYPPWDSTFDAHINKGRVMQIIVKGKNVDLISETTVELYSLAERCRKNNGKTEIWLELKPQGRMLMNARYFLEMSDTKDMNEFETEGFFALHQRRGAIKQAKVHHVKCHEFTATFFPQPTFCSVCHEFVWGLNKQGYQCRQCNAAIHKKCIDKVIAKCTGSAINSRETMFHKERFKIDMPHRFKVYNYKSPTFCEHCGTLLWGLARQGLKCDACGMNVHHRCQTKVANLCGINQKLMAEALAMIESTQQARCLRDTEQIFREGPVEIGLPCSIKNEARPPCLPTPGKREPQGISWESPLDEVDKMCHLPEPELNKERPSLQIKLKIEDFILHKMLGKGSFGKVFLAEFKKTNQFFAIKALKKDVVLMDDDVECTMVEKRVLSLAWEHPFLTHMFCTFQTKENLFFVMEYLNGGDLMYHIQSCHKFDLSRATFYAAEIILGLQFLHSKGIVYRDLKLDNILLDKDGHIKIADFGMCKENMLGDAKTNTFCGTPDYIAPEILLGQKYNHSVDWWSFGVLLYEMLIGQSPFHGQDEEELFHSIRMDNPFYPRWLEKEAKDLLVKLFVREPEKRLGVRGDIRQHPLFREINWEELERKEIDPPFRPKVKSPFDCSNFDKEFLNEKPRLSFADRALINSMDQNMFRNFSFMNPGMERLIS
A further experiment addresses Aurora kinase B (Homo sapiens, UniProt Q96GD4).
Experiment [39] deals with cAMP-dependent protein kinase catalytic subunit alpha (Homo sapiens, UniProt P17612).
Experiment [40] addresses Cyclin-dependent kinase 9 (Homo sapiens, UniProt P50750).
Experiment [41] concerns the target Platelet-derived growth factor receptor alpha (Homo sapiens, UniProt P16234). The experiment is described as follows: Navigating the Kinome. Panel member name: PDGFRA.
Experiment [42] concerns the target Dual specificity tyrosine-phosphorylation-regulated kinase 1A (Homo sapiens, UniProt Q13627).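 Also: measured against DYRK1A as one member of a broad kinome profiling panel.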
For experiment [43], the target named is Calcium/calmodulin-dependent protein kinase type II subunit alpha (Homo sapiens, UniProt Q9UQM7). The experiment is described as follows: Navigating the Kinome. Panel member name: CAMK2A.
The target of experiment [44] is Tyrosine-protein kinase JAK2 (Homo sapiens, UniProt O60674).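 Also: JAK2 tested as one member of a kinase panel.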
Experiment [45] has as its target Serine/threonine-protein kinase PAK 4 (Homo sapiens, UniProt O96013).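 Also: value obtained within a kinome profiling panel in which PAK4 was one of the panel members.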
For another experiment, the target named is Aurora kinase A (Homo sapiens, UniProt O14965).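 Also: value from the Navigating the Kinome kinase panel profiling, panel entry STK6.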
Experiment [46] deals with Fibroblast growth factor receptor 1 (Homo sapiens, UniProt P11362).
Experiment [47] addresses Vascular endothelial growth factor receptor 1 (Homo sapiens, UniProt P17948).
In experiment [48] the target is Dual specificity mitogen-activated protein kinase kinase 1 (Homo sapiens, UniProt Q02750). Nature of the experiment: Navigating the Kinome. Panel member name: MAP2K1.
The target in experiment [49] is Serine/threonine-protein kinase Chk1 (Homo sapiens, UniProt O14757).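 Also: measured as one member of a kinome-wide kinase profiling panel.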
In experiment [50] the target is Dual specificity mitogen-activated protein kinase kinase 2 (Homo sapiens, UniProt P36507). The experiment is described as follows: Navigating the Kinome. Panel member name: MAP2K2.
The target of experiment [51] is 5'-AMP-activated protein kinase catalytic subunit alpha-1 (Homo sapiens, UniProt Q13131).
The target in another experiment is Activated CDC42 kinase 1 (Homo sapiens, UniProt Q07912). Nature of the experiment: Navigating the Kinome. Panel member name: ACK1.
Experiment [52] addresses Macrophage-stimulating protein receptor (Homo sapiens, UniProt Q04912). The experiment is described as follows: Navigating the Kinome. Panel member name: MST1R.
The target in experiment [53] is Melanin-concentrating hormone receptor 1 (Homo sapiens, UniProt Q99705). The experiment is described as follows: Late-stage fluorescence-based counterscreen for antagonists of the G-protein coupled receptor 7 (GPR7): cell-based dose response assay to identify antagonists of the melanin-concentrating hormone receptor 1 (MCHR1) Set 6. For orientation: A counterscreen serves to expose hits that act by an unwanted route or on another target.

Experiment [54] concerns the target Neuropeptides B/W receptor type 1 (Homo sapiens, UniProt P48145). Nature of the experiment: human NPBW1 receptor blockade, IC50 – cell-based, fluorescence, dose response, set 6, late-stage follow-up (AID 588583).
Experiment [55] deals with MAP kinase-activated protein kinase 2 (Homo sapiens, UniProt P49137).
The target of experiment [56] is Cyclin-dependent kinase 1 (Homo sapiens, UniProt P06493).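 Also: Kinome-wide panel profiling, with the target listed as panel member CDC2.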
Experiment [57] concerns the target Serine/threonine-protein kinase PLK1 (Homo sapiens, UniProt P53350).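 Also: PLK1 measured as one member of a kinome-wide profiling panel.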

Calls of active or inactive are those of the source. Where only a bound is given, the exact number is not on record here.

The Ki is the equilibrium dissociation constant of an inhibitor or competing ligand from its target. The IC50 is the concentration that inhibits the measured activity by half.

Sequence of Aurora kinase B (Q96GD4 whole entry): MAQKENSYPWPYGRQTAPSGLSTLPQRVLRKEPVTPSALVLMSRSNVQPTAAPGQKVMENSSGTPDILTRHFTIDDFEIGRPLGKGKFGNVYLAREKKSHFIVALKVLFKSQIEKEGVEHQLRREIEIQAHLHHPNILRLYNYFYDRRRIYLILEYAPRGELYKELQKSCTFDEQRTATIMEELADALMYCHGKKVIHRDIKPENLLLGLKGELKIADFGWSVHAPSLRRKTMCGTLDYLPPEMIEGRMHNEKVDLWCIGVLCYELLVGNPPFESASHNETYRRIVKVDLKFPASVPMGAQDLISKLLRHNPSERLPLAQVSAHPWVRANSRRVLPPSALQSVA
Sequence of Leucine-rich repeat serine/threonine-protein kinase 2 (Q5S007 whole entry): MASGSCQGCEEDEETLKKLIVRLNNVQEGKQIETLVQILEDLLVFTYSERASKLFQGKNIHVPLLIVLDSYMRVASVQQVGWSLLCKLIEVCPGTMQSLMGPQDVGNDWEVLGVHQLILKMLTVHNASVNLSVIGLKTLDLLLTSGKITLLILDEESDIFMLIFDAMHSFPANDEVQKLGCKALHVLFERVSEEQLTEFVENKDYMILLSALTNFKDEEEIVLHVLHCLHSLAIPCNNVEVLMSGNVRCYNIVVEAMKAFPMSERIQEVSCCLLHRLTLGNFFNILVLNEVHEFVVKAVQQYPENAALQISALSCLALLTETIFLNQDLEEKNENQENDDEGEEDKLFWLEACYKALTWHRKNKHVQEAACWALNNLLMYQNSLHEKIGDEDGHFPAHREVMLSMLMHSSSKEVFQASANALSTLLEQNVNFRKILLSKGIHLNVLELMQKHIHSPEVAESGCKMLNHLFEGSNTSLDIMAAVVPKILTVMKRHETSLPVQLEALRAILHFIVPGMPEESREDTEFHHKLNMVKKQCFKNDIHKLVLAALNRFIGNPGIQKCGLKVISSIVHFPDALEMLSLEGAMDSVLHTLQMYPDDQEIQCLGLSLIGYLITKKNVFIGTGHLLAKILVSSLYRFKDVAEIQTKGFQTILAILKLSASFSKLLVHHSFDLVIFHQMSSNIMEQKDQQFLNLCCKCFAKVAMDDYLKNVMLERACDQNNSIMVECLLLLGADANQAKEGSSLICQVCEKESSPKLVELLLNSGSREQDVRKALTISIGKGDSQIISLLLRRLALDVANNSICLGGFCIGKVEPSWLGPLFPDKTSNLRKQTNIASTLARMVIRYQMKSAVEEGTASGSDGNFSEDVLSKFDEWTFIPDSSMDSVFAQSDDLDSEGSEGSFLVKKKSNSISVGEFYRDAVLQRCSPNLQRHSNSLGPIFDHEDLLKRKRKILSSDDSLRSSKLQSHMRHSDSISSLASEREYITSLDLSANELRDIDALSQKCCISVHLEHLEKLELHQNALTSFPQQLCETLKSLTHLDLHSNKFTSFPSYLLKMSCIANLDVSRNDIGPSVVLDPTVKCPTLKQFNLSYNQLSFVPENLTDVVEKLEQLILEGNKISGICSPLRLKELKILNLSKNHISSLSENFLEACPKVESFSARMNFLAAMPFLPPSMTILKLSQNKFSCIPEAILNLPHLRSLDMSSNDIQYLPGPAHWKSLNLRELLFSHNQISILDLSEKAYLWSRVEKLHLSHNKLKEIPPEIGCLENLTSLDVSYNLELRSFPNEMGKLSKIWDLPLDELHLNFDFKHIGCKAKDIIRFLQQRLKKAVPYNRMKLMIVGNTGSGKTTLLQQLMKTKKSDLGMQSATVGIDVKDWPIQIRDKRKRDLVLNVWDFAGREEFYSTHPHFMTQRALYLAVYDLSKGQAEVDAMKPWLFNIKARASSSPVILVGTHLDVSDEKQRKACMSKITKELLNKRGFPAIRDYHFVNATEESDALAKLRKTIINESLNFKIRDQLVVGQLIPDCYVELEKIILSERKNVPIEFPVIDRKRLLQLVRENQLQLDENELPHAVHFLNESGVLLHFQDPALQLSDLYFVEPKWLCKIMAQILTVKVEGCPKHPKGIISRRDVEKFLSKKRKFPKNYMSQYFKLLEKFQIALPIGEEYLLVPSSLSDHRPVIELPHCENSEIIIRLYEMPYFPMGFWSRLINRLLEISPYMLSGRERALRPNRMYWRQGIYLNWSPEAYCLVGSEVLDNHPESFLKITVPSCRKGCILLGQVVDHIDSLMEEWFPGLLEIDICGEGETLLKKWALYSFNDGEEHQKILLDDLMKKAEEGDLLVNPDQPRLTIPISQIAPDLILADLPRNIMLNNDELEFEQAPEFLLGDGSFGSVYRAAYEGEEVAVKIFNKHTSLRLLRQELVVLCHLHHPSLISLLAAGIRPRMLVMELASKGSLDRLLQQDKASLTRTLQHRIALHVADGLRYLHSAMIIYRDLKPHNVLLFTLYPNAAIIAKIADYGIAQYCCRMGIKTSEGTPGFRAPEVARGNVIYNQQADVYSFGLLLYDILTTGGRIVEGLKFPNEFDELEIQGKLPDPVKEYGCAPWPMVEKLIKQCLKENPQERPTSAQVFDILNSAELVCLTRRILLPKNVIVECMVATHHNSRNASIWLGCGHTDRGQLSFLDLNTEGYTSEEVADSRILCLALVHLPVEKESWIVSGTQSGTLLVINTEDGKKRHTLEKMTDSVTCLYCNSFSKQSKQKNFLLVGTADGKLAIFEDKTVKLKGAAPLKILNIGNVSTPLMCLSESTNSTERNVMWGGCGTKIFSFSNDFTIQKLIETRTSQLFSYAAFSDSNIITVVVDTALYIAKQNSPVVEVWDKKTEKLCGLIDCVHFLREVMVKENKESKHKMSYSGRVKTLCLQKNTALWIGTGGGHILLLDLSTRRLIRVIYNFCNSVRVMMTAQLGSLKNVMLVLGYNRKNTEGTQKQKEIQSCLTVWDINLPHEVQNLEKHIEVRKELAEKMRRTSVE

With `COc1ccccc1-c1ccnc(Nc2cccc(S(C)(=O)=O)c2)n1`, the Ki in [1] is 2.51 µM (active); in [2] it was > 2.51 µM (inactive); in experiment [3], > 3.98 µM (inactive); in [4], > 6.31 µM (inactive); in experiment [5], > 3.98 µM (inactive); in [6], 1 µM (active). Further, the Ki in experiment [7] is > 6.31 µM (inactive); in experiment [8] it was 2.51 µM (active); in experiment [9] it was 0.316 µM (active); in [10], 0.501 µM (active); in experiment [11] it was 0.398 µM (active); in [12], > 3.16 µM (inactive). Also, the Ki in experiment [13] was 0.631 µM (active); in experiment [14] it was > 3.16 µM (inactive); in experiment [15], > 3.16 µM (inactive); in experiment [16], 2.51 µM (active); in experiment [17] it was > 5.01 µM (inactive); in [18] it was > 3.98 µM (inactive). Moreover, the Ki in [19] is 0.501 µM (active); in [20], 0.794 µM (active); in experiment [21] it was > 2.51 µM (inactive); in [22], > 3.98 µM (inactive); in experiment [23], > 3.98 µM (inactive); at LIM domain kinase 1, > 3.16 µM (inactive). Moreover, the Ki in experiment [24] was 0.794 µM (active); in [25], > 5.01 µM (inactive); in experiment [26], 0.501 µM (active); in experiment [27] it was > 6.31 µM (inactive); on Activin receptor type-1, 0.2 µM (active); in experiment [28], > 2.51 µM (inactive). In addition, the Ki in experiment [29] was > 3.16 µM (inactive); in experiment [30] it was 2.51 µM (active); in experiment [31] it was > 3.98 µM (inactive); in [32], 3.98 µM (active); in [33], > 6.31 µM (inactive); in experiment [34], 0.501 µM (active). Also, the Ki in experiment [35] is > 2.51 µM (inactive); in experiment [36] it was > 3.98 µM (inactive); in experiment [37], > 3.16 µM (inactive); in [38] it was > 2.51 µM (inactive); at Aurora kinase B, 0.794 µM (active); in [39] it was > 1.26 µM (inactive). Moreover, the Ki was 0.0316 µM (active) in experiment [40]; > 2.51 µM (inactive) in experiment [41]; > 2 µM (inactive) in experiment [42]; 1 µM (active) in experiment [43]; > 2.51 µM (inactive) in [44]; > 5.01 µM (inactive) in experiment [45]. Moreover, the inhibition constant Ki at Aurora kinase A was 0.398 µM (active); in experiment [46] it was 2.51 µM (active); in experiment [47], 3.16 µM (active); in experiment [48], > 3.16 µM (inactive); in experiment [49], > 3.16 µM (inactive); in [50], > 3.98 µM (inactive). The figures for the Ki (in experiment [51]; at Activated CDC42 kinase 1; in experiment [52]) were > 3.16 µM (inactive), > 3.98 µM (inactive) and 3.98 µM (active), respectively.

For the compound `COc1ccc(Oc2c(Cl)cnn(CC(=O)N(c3ccccc3)C(C)C)c2=O)cc1`, the IC50 in experiment [53] and in [54] was 3.17 µM (active) throughout.

In the case of `Cc1cccc(CNC(=O)c2cnn3c(-c4ccccc4)ccnc23)c1C`, the inhibition constant (Ki) was 5.01 µM (active) in [4]; 2.51 µM (active) in experiment [55]; 2.51 µM (active) in experiment [56]; 7.94 µM (active) in experiment [9]; 7.94 µM (active) in [57]; 1.58 µM (active) at Aurora kinase B.
